Measured values taken from patent US11534445B2, “Compositions and methods for immune-mediated cancer therapy” (Teclison Limited, priority 2015, dated 2022).
Entries after “also recorded” stand apart in the source; their conditions may differ. One block for each molecule: values may come before it.

How the values were obtained:
[1] = system: NCI-H460 human lung cancer cells; assay: NCI-H460 lung cancer xenograft in BALB/c nude mice: tirapazamine plus vascular disrupting agent; format: in vivo, mouse; conditions: combretastatin A4 10 mg/kg i.v. or DMXAA 20 mg/kg i.v., 3-5 min after tirapazamine 30 mg/kg i.p.
Method: Materials and methods: Human lung cancer NCI-H460 cells were purchased from ATCC and used in this study. Cells were sub-cultured within 5 passages before inoculated into the mice. After the animals' acclimation period, approximately 1.5×10^6 NCI-H460 cells in 200 μL of serum-free media/matrigel (50:50 v/v) were injected subcutaneously to each mouse under anesthesia with 3-4% isoflurane. BALB/c nude mice, male, about 4-5 weeks and 18-20 g in weight were purchased from Shanghai SLAC Laboratory Animal Co. Ltd., China and housed in vivarium in 3-5 mice/cage by treatment group. Mice had free access to food (irradiated, Shanghai SLAC Laboratory Animal Co. Ltd. China) and water (municipal tap water filtered by Mol Ultrapure Water System).
Mice from each group were euthanized with CO2 asphyxiation followed by cervical dislocation at day 18 after the first dose, tumors were collected, weighed, and their pictures taken. The formalin fixed tumors were used for histopathology work. After formalin fixation, the tumors were paraffin embedded to get FFPE blocks. One block was made for each tumor chunk from one mouse. The FFPE blocks were sectioned at about 4 μm thick and processed for H&E staining, histopathology examination, and quantification of tumor necrosis. Detailed results are discussed further below. […]

[2] = system: hepatocellular carcinoma (HCC) in HBx transgenic mice; assay: Tirapazamine or doxorubicin plus left hepatic artery ligation (HAL) in tumor-bearing HBx transgenic mice: tumor necrosis by H&E histology; format: in vivo, mouse; conditions: for necrosis of HCCs in the territory of the left HAL, Day 7 (H&E): tirapazamine 3 mg/kg (n=3) or doxorubicin 10 mg/kg (n=2) IV + left HAL 40 min; for necrosis in the HCC within the territory of HAL, Day 1 post-treatment: tirapazamine 3 mg/kg or doxorubicin 10 mg/kg IV tail vein + transient left HAL, n=1 per group, histopathology
Method: Materials and methods: All the HBx transgenic mice were bred and followed-up in a specific pathogen-free facility; the tails of individual mice were subsequently collected for the genotyping process on weaning at 3 weeks of age. […] Transgenic mice having tumors 0.5-2 cm in diameter were used for the study.
(§1) Treatment of tumor-bearing HBx mice with tirapazamine and hepatic artery ligation: The HBx transgenic mice were subjected to the left hepatic artery ligation for 40 min and the silk ligation was subsequently untied. During the studies on the drug effects, 0.9% saline, doxorubicin (10 mg/kg), or TPZ (3 mg/kg) were injected into the tail vein of each mouse for 7 min before the hepatic artery ligation. After completion of the injection, a midline laparotomy was performed to expose the left lobe of liver and liver hilum to dissect the left or common hepatic artery for transient ligation. All mice were anaesthetized with intraperitoneal injection of 400 mg/kg avertin (Sigma-Aldrich, St. Louis, Mo., USA) during experiments. Serial serum samples were collected for evaluating the ALT and total bilirubin by using ARKRAY Spotchem EZ Chemistry Analyzer SP-4430 (Arkray, Inc., Kyoto, Japan) within the first week. After 1 or 7 days, the liver tissues were collected for HE staining.
Histology and morphometric analysis of tumor necrosis: For each mouse, the liver tissue containing the whole tumor and the adjacent non-tumorous region were fixed overnight in 10% formaldehyde and embedded in paraffin. The liver tissue sections (3 μm thickness) crossing the whole tumor were subjected to hematoxylin and eosin (H&E) staining for histological analysis. The percentage of necrosis in each tumor was quantified by dividing the necrotic area by the total tumor area in five cross sections covering the whole tumor, by using the ImageJ software (Version 1.46r, National Institutes of Health, Bethesda, Md., USA).
The HBx transgenic mice spontaneously develop hepatocellular carcinoma at approximately 18 months. […] Next, the efficacy of tirapazamine in combination with HAL was investigated and compared with a commonly used chemotherapy agent, doxorubicin, in TACE. A small group was first tested to compare the effects of saline (n=1), doxorubicin (10 mg/kg, n=1) and tirapazamine (3 mg/kg, n=1) to treat HBx transgenic mice that had palpable HCC, along with transient left HAL. Mice were sacrificed 1 day after treatment with tirapazamine and transient left HAL.
The same study was conducted to examine the histopathology changes at 7 days post treatment. The number of mice used for each group were saline (n=2), doxorubicin (10 mg/kg, n=2) and tirapazamine (3 mg/kg, n=3).

[3] = mouse, in vivo
Method: as §1

hepatocellular carcinoma = assay: Phase I dose-defining study of tirapazamine combined with trans-arterial embolization (TAE): efficacy by contrast MRI, modified RECIST; format: in vivo, human; conditions: for response on contrast enhanced MRI at 6th week after embolization: individual patients/lesions treated with tirapazamine before TAE
From the text: (§2) In order to test the clinical tolerability and efficacy of tirapazamine combined with TAE in humans, a phase I dose-defining study was initiated in US major medical centers to examine the tolerability, preliminary efficacy and determine the recommended phase 2 dose (RP2D) of tirapazamine when combined with TAE. HCC patients enrolled were Child-Pugh class A, were not surgical candidates and had up to 4 tumor lesions with no tumor lesion size greater than 10 cm and were suitable for embolization. The results of the first 12 evaluable patients were available for analysis.
(§3) Three patients were enrolled in either cohort.
The preliminary efficacy of the first 12 patients was analyzed and is exemplified in FIG. 4. Efficacy outcome is read by contrast […] based on modified Response Evaluation Criteria In Solid Tumors (RECIST) criteria so that only the size of the viable tumor was measured. […] Three additional patients had over 30% necrosis or partial response (PR). The overall response rate (CR+PR) was 83%.

[4] = Phase I dose-defining study of tirapazamine combined with TAE: tolerability; format: in vivo, human; conditions: 3 patients per cohort
From the text: as §2, §3

[5] = rat, in vivo

SMILES: Cc1ccc2c(=O)c3cccc(CC(=O)O)c3oc2c1C [DMXAA, 5,6-Dimethylxanthenone-4-acetic acid]
- effect on tumor vasculature [1]: nearly immediate shutdown of the tumor vasculature

SMILES: COc1ccc(/C=C\c2cc(OC)c(OC)c(OC)c2)cc1O [combretastatin A4]
- effect on tumor vasculature [1]: nearly immediate shutdown of the tumor vasculature

- total bilirubin in serum [3]: within the normal range
SMILES: COc1cccc2c1C(=O)c1c(O)c3c(c(O)c1C2=O)C[C@@](O)(C(=O)CO)C[C@@H]3O[C@H]1C[C@H](N)[C@H](O)[C@H](C)O1 [doxorubicin]
- necrosis of HCCs in the territory of the left HAL, Day 7 (H&E) [2]: Little to no pathological changes
- necrosis in the HCC within the territory of HAL, Day 1 post-treatment [2]: about 5%

SMILES: Nc1n[n+]([O-])c2ccccc2[n+]1[O-] [tirapazamine]
- tumor necrosis at dissection on Day 7 (pale color) ([2]; drug IV + transient HAL, FIG. 2D): evident that tumor necrosis occurred
- necrosis of HCCs in the territory of the left HAL, Day 7 (H&E) [2]: 90-99%
- inflammatory cell infiltration at margin of necrotic tumor ([2]; tirapazamine 3 mg/kg IV + left HAL, day 7, FIG. 3 inserts): high degree of inflammatory cell infiltration; also recorded: very strong inflammatory infiltrates
- necrosis in the HCC within the territory of HAL, Day 1 post-treatment [2]: more than 99%
- effective dose combined with transient HAL ([2]; titration study, HBx transgenic mouse model): 3 mg/kg
- overall response rate (CR+PR) (hepatocellular carcinoma; first 12 evaluable patients): 83%
- patients with over 30% necrosis or partial response (PR) (hepatocellular carcinoma; first 12 evaluable patients): Three
- response on contrast enhanced MRI at 6th week after embolization (hepatocellular carcinoma): complete response (CR)
- response on contrast enhanced MRI at 6th week after embolization (hepatocellular carcinoma; listed as Tirapazamine): two treated lesions achieved CR
- largest diameter of untreated lesion at 6th week follow-up (hepatocellular carcinoma; one patient, baseline 15 mm, two other lesions (26 and 10 mm) treated with tirapazamine + TAE): 9 mm
- complete response (CR) by modified RECIST (hepatocellular carcinoma; single treatment of tirapazamine with TAE, first 12 patients): 6/12
- toxicities / dose limiting toxicities ([4]; intra-arterial (IA) via hepatic artery 5 and 10 mg/m^2 + TAE): no observed toxicities or dose limiting toxicities (DLT)
- toxicities / dose limiting toxicities ([4]; systemic IV infusion 5 and 10 mg/m^2 + TAE): no observed toxicities or dose limiting toxicities (DLT)
- total bilirubin in serum [3]: within the normal range
- tolerability of IA administration followed by hepatic artery ligation [5]: well tolerated profile
